US6878713B2, “Generation triple-targeting, chiral, broad-spectrum antimicrobial 7-substituted piperidino-quinolone carboxylic acid derivatives, their preparation, compositions and use as medicaments” (Wockhardt Limited, priority 2001, dated 2005)
Values after ≈ are worked out from the molar mass of the structure shown.

Key:
[1] = system: Fluoroquinolone Sensitive Strains; assay: In-vitro antimicrobial test (MIC, two-fold serial agar dilution, NCCLS), Table 17; assay type: cell-based
Experimental: The test method was in accordance with the standard NCCLS protocol (Methods for Dilution Antimicrobial Susceptibility Tests for Bacteria that grow Aerobicially, Approved Standards, M7-A5, Fifth Edition, January 2000).
The antibacterial activities (minimum inhibitory concentration: MIC, […]) were determined by using the two-fold serial agar dilution method recommended by NCCLS. The media used for preculture and main culture were Tryptic Soya broth (Difco) and Mueller Hinton medium (Difco), respectively. The Mueller Hinton agar was supplemented with 5% sheep blood for streptococci. Overnight cultures were diluted with buffered saline (pH 7.2) to the final cell density of 5×10^6-10^7 CFU/ml, and each bacterial suspension was applied with a replicator (Denley's multipoint inoculator, UK) onto a series of Mueller-Hinton agar plates containing antibacterial agents at various concentrations. Final inoculum was approximately 10^4 CFU/spot. The plates were incubated for 18 hrs at 37° C. The MIC was defined as the lowest concentration of an antibacterial agent that inhibits the development of visible microbial growth on agar.

[2] = Escherichia coli, ATCC25922, E. coli ATCC 25922
[3] = Staphylococcus aureus, ATCC 25923 / MSSA, MSSA ATCC 25923
[4] = Streptococcus pneumoniae, ATCC49619, S. pneumoniae ATCC 49619

For `Cc1c(N2CCC(O)C(C)C2)c(F)cc2c(=O)c(C(=O)O)cn(C3CC3)c12` (mixture of isomers) [Compound 92, cis/trans-1-Cyclopropyl-6-fluoro-8-methyl-7-(4-hydroxy-3-methyl-1-piperidinyl)-1,4-dihydro-4-oxo-quinoline-3-carboxylic acid], the MICs ([1]; E. coli ATCC 25922) was 0.05 µg/mL and the MICs ([1]; MSSA ATCC 25923) was 0.1 µg/mL.

`COc1c(N2CCC(N)C(C)(C)C2)c(F)cc2c(=O)c(C(=O)O)cn(C3CC3)c12` (racemic) [Compound 17, (±)-1-Cyclopropyl-6-fluoro-1,4-dihydro-8-methoxy-7-(4-amino-3,3-dimethyl-1-piperidinyl)-4-oxo-quinoline-3-carboxylic acid] gave an MIC [1, 2] of 0.4 µg/mL (≈ 0.991 µM) and an MIC [1, 3] of 0.4 µg/mL (≈ 0.991 µM).

Molecule `COc1c(N2CCC(NC(=O)OCc3ccccc3)C(C)(C)C2)c(F)cc2c(=O)c(C(=O)O)cn(C3CC3)c12` (racemic) [Compound 32, (±)-1-Cyclopropyl-6-fluoro-1,4-dihydro-8-methoxy-7-(4-benzyloxycarbonylamino-3,3-dimethyl-1-piperidinyl)-4-oxo-quinoline-3-carboxylic acid] has a melting point of 158 to 160 °C.

Work on `Cc1c(N2CCC(N)C(C)(C)C2)c(F)cc2c(=O)c(C(=O)O)cn(C3CC3)c12` (racemic) [Compound 101, (±)-1-Cyclopropyl-6-fluoro-1,4-dihydro-8-methyl-7-(4-amino-3,3-dimethyl-1-piperidinyl)-4-oxo-quinoline-3-carboxylic acid] yielded a melting point of 198 to 200 °C.

Molecule `Cc1c(N2CCC(N)C(C)(C)C2)c(F)c(N)c2c(=O)c(C(=O)O)cn(C3CC3)c12` (racemic) [Compound 131, (±)-5-Amino-1-cyclopropyl-6-fluoro-1,4-dihydro-8-methyl-7-(4-amino-3,3-dimethyl-1-piperidinyl)-4-oxo-quinoline-3-carboxylic acid] has an MIC [1, 2] of 1.56 µg/mL (≈ 3.88 µM) and an MIC [1, 3] of 0.8 µg/mL (≈ 1.99 µM).

`Cc1c(N2CCC(N)C(C)(C)C2)c(F)cc2c(=O)c(C(=O)O)cn(C3CC3)c12.Cl` (racemic) [Example 97] gave a melting point of 242 to 244 °C.

For `COc1c(N2CC[C@@H](N)[C@H](C)C2)c(F)cc2c(=O)c(C(=O)O)cn(C3CC3)c12` (relative stereo) [Compound 2, trans-1-Cyclopropyl-6-fluoro-1,4-dihydro-8-methoxy-7-(4-amino-3-methyl-1-piperidinyl)-4-oxo-quinoline-3carboxylic acid], the melting point was 240 to 242 °C.

For `COc1c(N2CC[C@H](N)[C@H](C)C2)c(F)cc2c(=O)c(C(=O)O)cn(C3CC3)c12` (relative stereo) [Compound 5, cis-1-Cyclopropyl-6-fluoro-1,4-dihydro-8-methoxy-7-(4-amino-3-methyl-1-piperidinyl)-4-oxo-quinoline-3-carboxylic acid], the melting point was 246 to 250 °C.

`Cc1c(N2CC[C@H](N)[C@H](C)C2)c(F)cc2c(=O)c(C(=O)O)cn(C3CC3)c12` (relative stereo) [Compound 99, cis-1-Cyclopropyl-6-fluoro-1,4-dihydro-8-methyl-7-(4-amino-3-methyl-1-piperidinyl)-4-oxo-quinoline-3-carboxylic acid] gave a melting point of 224 to 228 °C.

`CCc1c(N2CC[C@H](O)[C@H](C)C2)c(F)cc2c(=O)c(C(=O)O)cn(C3CC3)c12` (relative stereo) [Compound 120, cis-1-Cyclopropyl-6-fluoro-8-ethyl-7-(4-hydroxy-3-methyl-1-piperidinyl)-1,4-dihydro-4-oxo-quinoline-3-carboxylic acid] gave an MIC [1, 2] of 0.8 µg/mL (≈ 2.06 µM), an MIC [1, 3] of 0.1 µg/mL (≈ 0.257 µM) and an MIC [1, 4] of 0.8 µg/mL (≈ 2.06 µM).

`Cc1c(N2CCC(N)C(C)(C)C2)c(F)cc2c(=O)c(C(=O)O)cn(C3CC3)c12` (single isomer, unassigned; (-)) [Compound 109, (−)-1-Cyclopropyl-6-fluoro-1,4-dihydro-8-methyl-7-(4-amino-3,3-dimethyl-1-piperidinyl)-4-oxo-quinoline-3-carboxylic acid] showed a melting point of 195 to 198 °C.

Molecule `Cc1c(N2CCC(N)C(C)(C)C2)c(F)c(N)c2c(=O)c(C(=O)O)cn(C3CC3)c12` (single isomer, unassigned; (-)) [Compound 133, (−)-5-Amino-1-cyclopropyl-6-fluoro-1,4-dihydro-8-methyl-7-(4-amino-3,3-dimethyl-1-piperidinyl)-4-oxo-quinoline-3-carboxylic acid] has an MIC [1, 2] of 0.4 µg/mL (≈ 0.994 µM), an MIC [1, 3] of 0.025 µg/mL (≈ 0.0621 µM) and an MIC [1, 4] of 0.2 µg/mL (≈ 0.497 µM).

With `CNC1CCN(c2c(F)cc3c(=O)c(C(=O)O)cn(C4CC4)c3c2OC)CC1C` (stereo not drawn) [Compound 8, 1-Cyclopropyl-6-fluoro-1,4-dihydro-8-methoxy-7-(4-methylamino-3-methyl-1-piperidinyl)-4-oxo-quinoline-3-carboxylic acid] the melting point was 240 °C (dec.).

For `CCNC1CCN(c2c(F)cc3c(=O)c(C(=O)O)cn(C4CC4)c3c2OC)CC1C` (stereo not drawn) [Compound 10, 1-Cyclopropyl-6-fluoro-1,4-dihydro-8-methoxy-7-(4-ethylamino-3-methyl-1-piperidinyl)-4-oxo-quinoline-3-carboxylic acid], the melting point was 160 to 162 °C.

For `CCn1cc(C(=O)O)c(=O)c2cc(F)c(N3CC(C)C(NC)C(C)C3)c(OC)c21` (stereo not drawn) [Compound 46, 1-Ethyl-6-fluoro-1,4-dihydro-8-methoxy-7-(4-methylamino-3,5-dimethyl-1-piperidinyl)-4-oxo-quinoline-3-carboxylic acid], the MIC [1, 2] was 0.1 µg/mL (≈ 0.247 µM), the MIC [1, 3] was 0.05 µg/mL (≈ 0.123 µM) and the MIC [1, 4] was 0.1 µg/mL (≈ 0.247 µM).

In the case of `COc1c(N2CC(C)C(NC3CC3)C(C)C2)c(F)cc2c(=O)c(C(=O)O)cn(C3CC3)c12` (stereo not drawn) [Compound 48, 1-Cyclopropyl-6-fluoro-1,4-dihydro-8-methoxy-7-(4-cyclopropylamino-3,5-dimethyl-1-piperidinyl)-4-oxo-quinoline-3-carboxylic acid], the MIC [1, 2] is reported as 6.25 µg/mL (≈ 14.1 µM), the MIC [1, 3] is reported as 1.56 µg/mL (≈ 3.52 µM) and the MIC [1, 4] is reported as > 6.25 µg/mL.

Work on `CCOC(=O)NC1CCN(c2c(F)c(N)c3c(=O)c(C(=O)O)cn(C4CC4)c3c2OC)CC1(C)C` (stereo not drawn) [Compound 70, 5-Amino-1-cyclopropyl-6-fluoro-1,4-dihydro-8-methoxy-7-(4-ethoxycarbonylamino-3,3-dimethyl-1-piperidinyl)-4-oxo-quinoline-3-carboxylic acid] yielded an MIC [1, 2] of 0.4 µg/mL (≈ 0.815 µM), an MIC [1, 3] of 0.05 µg/mL (≈ 0.102 µM) and an MIC [1, 4] of 0.2 µg/mL (≈ 0.408 µM).

Work on `COc1c(N2CCC(NC3CC3)C(C)(C)C2)c(F)c(N)c2c(=O)c(C(=O)O)cn(C3CC3)c12` (stereo not drawn) [Compound 75, 5-Amino-1-cyclopropyl-6-fluoro-1,4-dihydro-8-methoxy-7-(4-cyclopropylamino-3,3-dimethyl-1-piperidinyl)-4-oxo-quinoline-3-carboxylic acid] yielded an MIC [1, 2] of 0.2 µg/mL (≈ 0.436 µM), an MIC [1, 3] of 0.05 µg/mL (≈ 0.109 µM) and an MIC [1, 4] of 0.2 µg/mL (≈ 0.436 µM).

With `COc1c(N2CC(C)C(O)C(C)C2)c(F)cc2c(=O)c(C(=O)O)cn(C3CC3)c12` (stereo not drawn) [Compound 145, 1-Cyclopropyl-6-fluoro-1,4-dihydro-8-methoxy-7-(4-hydroxy-3,5-dimethyl-1-piperidinyl)-4-oxo-quinoline-3-carboxylic acid] the MIC [1, 2] was 1.56 µg/mL (≈ 3.86 µM), the MIC [1, 3] was 0.025 µg/mL (≈ 0.0618 µM) and the MIC [1, 4] was 0.4 µg/mL (≈ 0.989 µM).

For `COc1c(N2CC(C)C(O)C(C)(C)C2)c(F)cc2c(=O)c(C(=O)O)cn(C3CC3)c12` (stereo not drawn) [Compound 147, 1-Cyclopropyl-6-fluoro-1,4-dihydro-8-methoxy-7-(4-hydroxy-3,3,5-trimethyl-1-piperidinyl)-4-oxo-quinoline-3-carboxylic acid], the MIC [1, 2] was 0.4 µg/mL (≈ 0.956 µM), the MIC [1, 3] was < 0.006 µg/mL and the MIC [1, 4] was 0.1 µg/mL (≈ 0.239 µM).
